Measurements as given in PubChem BioAssay AID623973 (The Scripps Research Institute Molecular Screening Center, 2012).
Active and inactive are the calls of the source. The rule behind the calls is not given here.

Target: Hepatitis C virus NS3 helicase (ATPase activity)
Test: inhibitors of HCV NS3 ATPase activity, late-stage follow-up, mechanism study for HCV NS3 helicase inhibitor project, biochemical, absorbance (AID 623973)
Conditions: absorbance phosphate detection

Row | IC50 | SMILES
1 | > 200 µM (inactive) | Cc1cc2sc(-c3ccc(N)cc3)nc2cc1S(=O)(=O)O
2 | 67 µM | Cc1ccc2nc(-c3ccc4nc(-c5ccc(NC(=O)c6ccc(F)cc6)cc5)sc4c3)sc2c1S(=O)(=O)O
3 | > 200 µM (inactive) | Cc1cc(C(O)(c2ccc(Nc3ccccc3)cc2)c2ccc(Nc3ccc(S(=O)(=O)O)cc3)cc2)ccc1N (stereo unspecified)
4 | > 200 µM (inactive) | O=C(CCCCCCC(=O)Nc1ccc(-c2nc3ccccc3[nH]2)cc1)Nc1ccc(-c2nc3ccccc3[nH]2)cc1
5 | > 200 µM (inactive) | CCOc1ccc2c(NNC(=O)c3cnccn3)c3c(nc2c1)CCCC3
6 | > 200 µM (inactive) | CCN(CC)c1ccc(-c2nc3ccc(C)c(S(=O)(=O)O)c3s2)cc1
7 | > 200 µM (inactive) | Cc1ccc2nc(-c3ccc4nc(-c5ccc(NC(=O)c6cccnc6)cc5)sc4c3)sc2c1S(=O)(=O)O
8 | > 200 µM (inactive) | COc1cccc2c(=O)c3cc(Cl)cc(C(=O)Nc4cc(Cl)ccn4)c3[nH]c12
9 | 61 µM | Cc1ccc2nc(-c3ccc4nc(-c5ccc(NC(=O)c6cc(C(F)(F)F)ccc6F)cc5)sc4c3)sc2c1S(=O)(=O)O
10 | 50 µM | COc1ccc(C(=O)Nc2ccc(-c3nc4ccc(-c5nc6ccc(C)c(S(=O)(=O)O)c6s5)cc4s3)cc2)cc1
11 | 44 µM | Cc1ccc2nc(-c3ccc4nc(-c5ccc(NC(=O)c6ccc(Cl)c(Cl)c6)cc5)sc4c3)sc2c1S(=O)(=O)O
12 | > 200 µM (inactive) | Cc1ccc2nc(-c3ccc4nc(-c5ccc(NC(=O)c6ccc7nc(-c8ccc(N)cc8)sc7c6)cc5)sc4c3)sc2c1S(=O)(=O)O
13 | 73 µM | COc1ccc(NC(=O)Nc2ccc(-c3nc4ccc(-c5nc6ccc(C)c(S(=O)(=O)O)c6s5)cc4s3)cc2)cc1
14 | 86 µM | Cc1ccc2nc(-c3ccc4nc(-c5ccc(NC(=O)Nc6ccc(Cl)cc6)cc5)sc4c3)sc2c1S(=O)(=O)O
15 | > 200 µM (inactive) | Cc1ccc2nc(-c3ccc(NC(=O)c4ccc(NC(=O)Nc5ccccc5)cc4)cc3)sc2c1S(=O)(=O)O
16 | inactive | Cc1ccc2nc(-c3ccc4nc(-c5ccc(NC(=O)c6ccc(C(C)(C)C)cc6)cc5)sc4c3)sc2c1S(=O)(=O)O

Row | IC50 | SMILES
17 | 50 µM | Cc1ccc2nc(-c3ccc4nc(-c5ccc(NC(=O)c6ccc(Br)cc6)cc5)sc4c3)sc2c1S(=O)(=O)O
18 | 43 µM | Cc1ccc2nc(-c3ccc4nc(-c5ccc6nc(-c7ccc8nc(-c9ccc(N)cc9)sc8c7)sc6c5)sc4c3)sc2c1S(=O)(=O)O
19 | 33 µM | Cc1ccc(C(=O)Nc2ccc(-c3nc4ccc(-c5nc6ccc(C)c(S(=O)(=O)O)c6s5)cc4s3)cc2)cc1
20 | > 200 µM (inactive) | Cc1cc2sc(-c3ccc4nc(-c5ccc(N)cc5)sc4c3)nc2cc1S(=O)(=O)O
21 | 30 µM | Cc1ccc2nc(-c3ccc4nc(-c5ccc(NC(=O)c6ccc7ccccc7c6)cc5)sc4c3)sc2c1S(=O)(=O)O
22 | > 200 µM (inactive) | Cc1ccc2nc(-c3ccc4nc(-c5ccc(N)cc5)sc4c3)sc2c1S(=O)(=O)O
23 | > 200 µM (inactive) | CN1CCN(Cc2cc(CN3CCN(C)CC3)c(O)c(=O)c(CN3CCN(C)CC3)c2)CC1
24 | > 200 µM (inactive) | CCN(CC)c1ccc(-c2nc3ccc(-c4nc5ccc(C)c(S(=O)(=O)O)c5s4)cc3s2)cc1
25 | inactive | Cc1ccc2nc(-c3ccc4nc(-c5ccc(NC(=O)c6ccc(N)cc6)cc5)sc4c3)sc2c1S(=O)(=O)O
26 | > 200 µM (inactive) | Cc1ccc2nc(-c3ccc(N)cc3)sc2c1S(=O)(=O)O
27 | 24 µM | Cc1ccc2nc(-c3ccc4nc(-c5ccc(NC(=O)c6ccc(C(F)(F)F)cc6)cc5)sc4c3)sc2c1S(=O)(=O)O
28 | 74 µM | Cc1ccc2nc(-c3ccc4nc(-c5ccc(NC(=O)c6cccc(Cl)c6)cc5)sc4c3)sc2c1S(=O)(=O)O
29 | inactive | Cc1ccc2nc(-c3ccc4nc(-c5ccc(NC(=O)c6cc(C(F)(F)F)cc(C(F)(F)F)c6)cc5)sc4c3)sc2c1S(=O)(=O)O
30 | 70 µM | Cc1ccc2nc(-c3ccc4nc(-c5ccc(NC(=O)Nc6ccccc6)cc5)sc4c3)sc2c1S(=O)(=O)O
31 | > 200 µM (inactive) | Cc1ccc2c(sc(-c3ccc4c(c3)sc(-c3ccc5c(c3)sc(-c3ccc(N(C)C)cc3)[n+]5C)[n+]4C)[n+]2C)c1S(=O)(=O)O (tested in a mixture with another compound)
